The values below come from article PMC2692545 (Biochemical pharmacology, 2009).

C1/C2 + Gsα (VC1:IIC2 plus Gsα-GTPγS), sequence (P30803 442-656): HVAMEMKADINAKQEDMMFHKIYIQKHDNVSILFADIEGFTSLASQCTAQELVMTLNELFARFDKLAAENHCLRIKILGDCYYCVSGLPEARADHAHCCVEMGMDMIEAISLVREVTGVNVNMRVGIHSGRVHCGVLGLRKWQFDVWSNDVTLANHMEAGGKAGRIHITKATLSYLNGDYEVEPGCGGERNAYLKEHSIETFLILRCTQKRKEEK
C1/C2 + Gsα (VC1:IIC2 plus Gsα-GTPγS), sequence (P26769 870-1081): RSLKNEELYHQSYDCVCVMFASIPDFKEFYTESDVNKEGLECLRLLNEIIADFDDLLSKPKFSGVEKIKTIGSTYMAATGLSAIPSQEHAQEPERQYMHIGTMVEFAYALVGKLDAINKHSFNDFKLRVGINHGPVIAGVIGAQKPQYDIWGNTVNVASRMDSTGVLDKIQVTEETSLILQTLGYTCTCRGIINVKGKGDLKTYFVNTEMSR
C1/C2 + Gsα (VC1:IIC2 plus Gsα-GTPγS), sequence (P04896 2-394 partner): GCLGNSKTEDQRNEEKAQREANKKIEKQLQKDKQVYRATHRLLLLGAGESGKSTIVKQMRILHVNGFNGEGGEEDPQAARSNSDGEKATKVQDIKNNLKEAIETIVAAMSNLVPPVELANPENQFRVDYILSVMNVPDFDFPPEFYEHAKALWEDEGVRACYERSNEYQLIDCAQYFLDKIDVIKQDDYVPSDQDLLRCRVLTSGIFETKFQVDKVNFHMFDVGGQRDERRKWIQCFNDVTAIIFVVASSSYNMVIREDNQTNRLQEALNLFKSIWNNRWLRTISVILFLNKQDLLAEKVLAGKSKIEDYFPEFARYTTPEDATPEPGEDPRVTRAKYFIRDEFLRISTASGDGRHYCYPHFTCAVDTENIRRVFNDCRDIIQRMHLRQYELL

The assay has as its target C1/C2 + Gsα (VC1:IIC2 plus Gsα-GTPγS) (Canis lupus familiaris; Rattus norvegicus; Bos taurus, UniProt P26769+P30803). The assay can be described thus: […]cAMP formation from [α-32P]ATP, stimulation of catalysis. It is filed as biochemical. For orientation: Cyclic AMP is a second messenger, typically raised through Gs and lowered through Gi signalling.
What is called EC50 is the concentration that produces a half-maximal response. For `C=C[C@@]1(C)CC(=O)[C@]2(O)[C@@]3(C)[C@@H](O)CCC(C)(C)[C@@H]3[C@H](O)[C@H](OC(=O)CCCN3CCN(C)CC3)[C@@]2(C)O1` [DMB-FS], the EC50 was 27.6 ± 7 µM.
On to `C=C[C@@]1(C)CC(=O)[C@H]2[C@](C)(O1)[C@@H](OC(C)=O)[C@@H](O)[C@H]1C(C)(C)CC[C@H](O)[C@@]12C` [9d-FS], for which the EC50 was 19.5 ± 0.7 µM.
On to `C=C[C@@]1(C)CC(=O)[C@]2(O)[C@@]3(C)[C@@H](O)CCC(C)(C)[C@@H]3[C@H](O)[C@H](OC(C)=O)[C@@]2(C)O1` [FS], for which the EC50 worked out at 7.4 ± 1.2 µM.
With `C=C[C@@]1(C)CC(=O)[C@]2(O)[C@@]3(C)[C@@H](O)CCC(C)(C)[C@@H]3[C@H](OC(C)=O)[C@H](O)[C@@]2(C)O1` [6A7DA-FS], the EC50 is 2.6 ± 1 µM.
